Structures can show the parent of a compound that is named as a salt.
Molecular target: T1, VhAasS (Vibrio harveyi, UniProt Q00IB3)
T1 construct: gene aasS; His6-tagged, expressed in E. coli BL21[DE3], Ni-NTA purified; tag removal not mentioned
T1 sequence (Q00IB3 1-533): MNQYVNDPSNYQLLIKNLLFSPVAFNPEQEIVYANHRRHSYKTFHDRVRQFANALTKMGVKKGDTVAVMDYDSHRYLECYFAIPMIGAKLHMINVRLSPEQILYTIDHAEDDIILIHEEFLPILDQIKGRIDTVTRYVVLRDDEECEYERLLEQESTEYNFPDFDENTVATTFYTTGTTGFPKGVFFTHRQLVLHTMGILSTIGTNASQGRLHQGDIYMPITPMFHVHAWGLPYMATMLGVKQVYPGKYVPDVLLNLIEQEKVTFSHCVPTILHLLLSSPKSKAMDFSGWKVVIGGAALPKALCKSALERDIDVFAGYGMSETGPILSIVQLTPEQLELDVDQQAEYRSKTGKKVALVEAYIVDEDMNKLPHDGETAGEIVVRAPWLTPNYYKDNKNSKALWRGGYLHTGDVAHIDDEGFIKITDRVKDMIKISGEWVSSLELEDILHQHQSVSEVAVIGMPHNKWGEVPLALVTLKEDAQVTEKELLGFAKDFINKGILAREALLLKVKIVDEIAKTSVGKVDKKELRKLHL
Experiment: urea-PAGE of acyl-ACP loading, ImageJ densitometry
Format: biochemical
Conditions: decanoic acid 1 mM, ATP 10 mM, MgCl2 12.5 mM, TCEP 2.5 mM; holo-EcACP or holo-VcACP 30 µM; enzyme 0.5 µM; pH 7.5, 37 °C, 24 h

Structure (SMILES): CCCCCCCCCC(=O)NS(=O)(=O)OC[C@H]1O[C@@H](n2cnc3c(N)ncnc32)[C@H](O)[C@@H]1O [compound 7, 5′-O-(N-decanylsulfamoyl)adenosine mono sodium salt]
- % inhibition at 1 mM: In the presence of C10-AMS, VhAasS is completely inhibited from loading decanoic acid

— paper PMC7575536, “Synthesis of an acyl-acyl carrier protein synthetase inhibitor to study fatty acid recycling” (Scientific Reports, 2020)
